The values below come from a melting point compilation (Tetko et al.; mined from patent text by program, amines drawn as free bases though some values may be those of a salt).

By melting point is commonly meant the temperature, or range, at which the solid turns liquid. Consider `N#Cc1cccc(C=CCN2CCc3nc(N)sc3CC2)c1`, for which the melting point was 136 to 140 °C.
In the case of `CN1C[C@H](CN2CCN(C(c3ccccc3)c3ccccc3)CC2)C=C2c3cccc4c3c(cn4C)C[C@H]21`, the melting point lay within 172 to 175 °C.
As for `CN(C)CCOC(=O)c1cnn2c(-c3cccc(C(F)(F)F)c3)ccnc12`, the melting point was in the range of 119 to 120 °C.
Molecule `O=C(Nc1ccnn1-c1ccc(Cl)cc1Cl)c1cccnc1Cl` had a melting point of 162 to 164 °C.
Molecule `CC(C)(C)OC(=O)c1cc(Br)cc([N+](=O)[O-])c1` returned a melting point of 77 to 78 °C.
Molecule `CCN1c2ccccc2N(C(=O)CN(C)C)c2ccccc2S1(=O)=O` returned a melting point of 115 to 116 °C.
In turn, `CON=Cc1nn(-c2c(Cl)cc(C(F)(F)F)cc2Cl)c(N)c1S(C)=O` (centres undefined) yielded a melting point of 80 °C.
On to `C#Cc1cn(C2CC(N=[N+]=[N-])C(COC(c3ccccc3)(c3ccccc3)c3ccccc3)O2)c(=O)[nH]c1=O` (centres undefined), for which the melting point was found to be 110 °C.
The value for `CNc1ccc2c(c1N)C(=O)OC21c2cc(F)c(O)cc2Oc2cc(O)c(F)cc21` was 265 °C; that for `CCC(C)C(=O)NC1CCC(CCN2CCN(c3nccc4c3OCC4)CC2)CC1` (racemic) was 196 °C; that for `Cn1c(=O)oc2cc(N3C[C@H](C(N)=O)OC3=O)ccc21` was more than 260 °C.
`NCCCc1ccc(CCCN)nc1` displayed a melting point of 116 to 119 °C.
For `CCSC(N)=C(C#N)C#N`, the melting point fell in the range of 180 to 182 °C.
In turn, `CC(C(=O)O)c1ccc(-c2ccc(F)cc2F)c(F)c1` (centres undefined) gave a melting point of 105 to 108 °C.
`COC(=O)c1cn(-c2ccc(C3=NOC(NC(C)=O)C3)cc2F)nn1` (centres undefined) showed a melting point of 221 °C.
Turning to `Cc1cccnc1C1CC(C)(C)Oc2ccccc21` (centres undefined), the melting point was 100 to 102 °C.
On to `CCOC(=O)C(O)=CC=C(SC)C(=O)c1ccc(N2CCCCC2)cc1`, for which the melting point was 65 °C.
The molecule `CCOC(=O)c1cn(CCNC(=O)OC(C)(C)C)c(Br)c1-c1cccc(F)c1` gave a melting point of 108 to 110 °C.
On to `CCC(=O)ON=C(c1ccccc1)c1cc(C(C)(C)C)c(O)c(C(C)(C)C)c1`, for which the melting point fell in the range of 132 to 134 °C.
Consider `O=C(/C=C/c1c(F)cccc1Cl)/C=C/c1c(F)cccc1Cl`, for which the melting point stood at 144 °C.
Molecule `O=c1c2[nH]c(Cl)nc2n(CC2CC2)c(=O)n1CC1CC1` yielded a melting point of 220 °C.
As for `CCOC(=O)c1ccc(-c2nc(COc3ccc(COc4nn(-c5ccccc5)cc4/C=C/P(=O)(OCC)OCC)cc3OC)c(C)o2)o1`, the melting point was in the range of 129 to 130 °C.
The molecule `COc1nc(C(=O)N(C)Cc2cc(C(F)(F)F)cc(C(F)(F)F)c2)c(-c2ccccc2)c2ccccc12` displayed a melting point of 129 to 130 °C.
As to `CC(=O)OC1(C(=O)COC(=O)c2ccccc2)CCC2C3CC(C)C4=CC(=O)C=CC4(C)C3C(O)CC21C` (centres undefined), the melting point was 136 to 138 °C.
For the molecule `CN(c1ccccc1)c1nc(Cl)nc2sccc12`, the melting point lay within 167 to 168 °C.
The molecule `CC(C)(C(=O)N(O)Cc1ccccc1Cl)C(Cl)Cl` yielded a melting point of 136 to 138 °C.
Regarding `O=C(Nc1ccc(C(=O)N2Cc3cccn3Cc3ccccc32)cc1)c1cc(Cl)ccc1Cl`, the melting point is 218 to 220 °C.
In turn, `N#CCc1cnc(N)cn1` yielded a melting point of 132 to 134 °C.
As to `CCOC(=O)c1c[nH]c2c(C#N)c(CCCNC)nn2c1=O`, the melting point lay within 285 to 287 °C.
The figure for `O=C(Nc1cc(C(=O)NCCc2ccccc2)ccc1O)C(=O)Nc1cc(Cl)cc(Cl)c1O` is 265 °C; for `O=S1CCN(c2nc(N3CCOCC3)nc(-n3c(C(F)F)nc4ccccc43)n2)CC1` it is 225 to 226 °C; for `NS(=O)(=O)c1ccc(-n2nc(C(F)(F)F)cc2-c2ccc(-c3cscn3)c(C(F)(F)F)c2)cn1` it is 114 °C.
The figure for `N#Cc1cnc2sc(-c3ccc(C=O)cc3)cc2c1Nc1cccc2[nH]ccc12` is more than 245 °C; for `Cn1nnn(-c2c(Cl)ccc(C(=O)C3C(=O)CCCC3=O)c2Cl)c1=O` it is 138 to 140 °C.
In turn, `CCCCCCCCCCOc1ccc(OCc2ccccc2)c(C(=O)N(CC(=O)OCC)CC(=O)OCC)c1` gave a melting point of 37 to 38 °C.
For the molecule `CC(C)c1nc(CCOC2=CCCCCCCCCCC2)n(C)c1Sc1cc(Cl)cc(Cl)c1`, the melting point fell in the range of 96 to 102 °C.
The figure for `Cc1cc(-n2cncn2)c2c(Cl)ccc(C)c2n1` is 117 to 118 °C; for `O=C(c1cc(Cl)cc(Cl)c1)c1cc(Cl)cc(Cl)c1` it is 157 °C; for `C=C(C)COc1ccc2c(C)cc(=O)oc2c1C(=O)C=Cc1ccccc1` it is 158 to 160 °C.
`COc1c(Br)c(-c2cc(C(C)C)n(C)n2)cc2oc(=O)c(Cl)c(C)c12` gave a melting point of 165 °C.
`C=CC(=O)Oc1cccc(O)c1O` had a melting point of 92 to 95 °C.
`COc1cc2c(cc1CCNC(=O)Cc1ccc(OC)c(OC)c1)CCC2`: the melting point is 115 °C.
`CC(C)NC(=O)NNC=NC(=O)c1nc(F)c(N)nc1N` registered a melting point of 221 °C.
The value for `O=[N+]([O-])c1cccc2c(CO)ccnc12` was 148 °C.
`CC(=O)OCSc1c(F)cc(-c2c(-c3ccccc3)noc2C)cc1F`: the melting point came to 130 °C.
The molecule `CSc1cccc(C2CC(=O)C=C(O)C2)c1` (centres undefined) registered a melting point of 141 °C.
For the molecule `CSc1ncc(C(C)c2cccnc2)c(=O)[nH]1` (centres undefined), the melting point is 201 to 204 °C.
In turn, `CCn1cc(C(=O)O)c(=O)cc1-c1cccc(N)c1` showed a melting point of 145 to 146 °C.
In turn, `COc1cc2ncnc(N3CCc4c(C)cccc43)c2cc1OC` yielded a melting point of 174 to 175 °C.
Consider `CCCC(=O)c1ccc(OCCCC(=O)O)c(Cl)c1Cl`, for which the melting point is 111 to 113 °C.
The molecule `Cc1nc2ccc(N3C[C@H](C(N)c4nccs4)OC3=O)cc2s1` (some centres undefined) showed a melting point of 207 °C.
Take `O=C(NCc1ccc(C(F)(F)F)cc1)c1cnc(Cl)nc1N1CCCC1`: the melting point lay within 170 to 171 °C.
The molecule `O=C(Cc1c(F)c(F)nc(F)c1Cl)OCc1ccccc1` yielded a melting point of 87 to 92 °C.
Take `Cc1cncc(C(=O)OC(C)c2nc3c(c(=O)n(C)c(=O)n3C)n2C)c1` (centres undefined): the melting point is 110 °C.
As for `CCOCc1nc2c(N)nc3cc(Br)ccc3c2n1CCCCNC(=O)NC(C)C`, the melting point came out at 211 °C.
In turn, `CN1CCN(Cc2ccc(Cl)cc2Cl)C(C2=NCCN2)C1` (centres undefined) had a melting point of 167 to 169 °C.
The value for `COc1ccccc1NC(=O)Nc1nc(NC(C)C)nc(N(CCC(=O)O)Cc2ccc(Cl)c(Cl)c2)n1` was 95 to 101 °C; that for `CCOc1ccc(S(=O)(=O)N(CC(=O)NN=C2C(=O)Nc3ccc(I)cc32)c2ccccc2)cc1` was 233 to 234 °C; that for `CCOC(=O)c1c(OCc2ccccc2)cc(C(F)(F)F)nc1C(F)(F)F` was 56 to 58.5 °C.
For `OC1CSC(Oc2cnc(-c3ccncc3)c(F)c2)C(O)C1O` (centres undefined), the melting point came out at 192 °C.
For `CCOC(=O)C1(C(=O)O)Cc2cc(OC)c(OC)cc2C1`, the melting point is 146 to 148 °C.
For the molecule `Cc1c(/C=N/OCc2ccc(C(=O)O)c(Br)c2)c2ccccc2n1C`, the melting point is 165 to 166 °C.
On to `COc1ccc(C(=O)O)cc1Nc1ccccc1`, for which the melting point was 198 to 200 °C.
The figure for `CC(C)(C)[Si](C)(C)O[C@H]1CCNC1=O` is 48 to 49 °C.
